Values quoted from earlier work, collected in patent US20200319191A1, “MOLECULAR PROFILING FOR CANCER” (Caris MPI, Inc., priority 2015, published 2020).
Like-named read-outs stand apart in the source and are kept apart here. One block for each compound: values may come before it.

Columns and labels:
c-Kit = c-Kit (Homo sapiens, UniProt P10721)
[1] = system: platelet-derived growth factor receptor (PDGFR)
[2] = for Evid. Level, ER Positive (IHC) / Bene. Level, ER Positive (IHC): Hormonal Agents; for sensitivity of AML tumor cells by NPM status: AML tumor cells with mutant NPM; for resistance by ALK secondary mutations: ALK secondary mutations found in NSCLC; for sensitivity by EGFRvIII expression: preliminary studies; for Bene. Level, PGP Positive (IHC) / Evid. Level, PGP Positive (IHC): Anthracyclines

Sequence of c-Kit (P10721 26-976): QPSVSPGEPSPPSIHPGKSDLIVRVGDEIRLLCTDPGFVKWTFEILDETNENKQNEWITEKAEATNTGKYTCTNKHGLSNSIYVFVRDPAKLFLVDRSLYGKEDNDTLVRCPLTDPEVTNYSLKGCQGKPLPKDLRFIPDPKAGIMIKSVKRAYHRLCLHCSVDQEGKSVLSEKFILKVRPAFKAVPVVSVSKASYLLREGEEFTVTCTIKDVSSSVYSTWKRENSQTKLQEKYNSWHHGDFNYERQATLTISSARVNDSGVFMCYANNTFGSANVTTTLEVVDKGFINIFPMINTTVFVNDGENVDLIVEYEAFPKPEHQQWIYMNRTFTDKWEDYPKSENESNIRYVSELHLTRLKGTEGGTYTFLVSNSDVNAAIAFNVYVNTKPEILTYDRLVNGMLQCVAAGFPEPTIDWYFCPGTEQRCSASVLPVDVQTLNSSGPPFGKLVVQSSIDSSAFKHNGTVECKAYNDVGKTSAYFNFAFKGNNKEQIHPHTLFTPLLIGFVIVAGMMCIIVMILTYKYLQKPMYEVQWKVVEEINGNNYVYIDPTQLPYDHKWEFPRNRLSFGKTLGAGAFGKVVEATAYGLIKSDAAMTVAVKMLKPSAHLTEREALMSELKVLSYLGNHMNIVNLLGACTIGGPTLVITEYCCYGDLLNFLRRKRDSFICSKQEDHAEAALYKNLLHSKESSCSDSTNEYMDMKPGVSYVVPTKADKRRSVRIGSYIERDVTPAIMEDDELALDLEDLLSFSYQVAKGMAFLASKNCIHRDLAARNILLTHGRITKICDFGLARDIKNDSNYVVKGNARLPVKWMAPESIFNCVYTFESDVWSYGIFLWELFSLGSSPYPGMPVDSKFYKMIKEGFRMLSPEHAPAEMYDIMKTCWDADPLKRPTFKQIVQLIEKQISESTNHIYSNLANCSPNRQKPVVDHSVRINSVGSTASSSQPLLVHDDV

kinase activity (c-Kit): block the activity
SMILES: Cc1ccc(NC(=O)c2ccc(CN3CCN(C)CC3)cc2)cc1Nc1nccc(-c2cccnc2)n1 [Imatinib, imatinib]
kinase activity [1]: block the activity

Evid. Level, ER Positive (IHC) ([2]; ER Positive (IHC)=F): 1 | Bene. Level, ER Positive (IHC) ([2]; ER Positive (IHC)=T): 1 | Evid. Level, ER Positive (IHC) ([2]; ER Positive (IHC)=T): 1
SMILES: CC(C)(C#N)c1cc(Cn2cncn2)cc(C(C)(C)C#N)c1 [anastrozole]

SMILES: CC[C@@]1(O)C(=O)OCc2c1cc1n(c2=O)Cc2cc3ccccc3nc2-1 [camptothecin]
sensitivity of AML tumor cells by NPM status [2]: research shows AML tumor cells with mutant NPM are more sensitive to

SMILES: Cc1cc(Nc2ncc(Cl)c(Nc3ccccc3S(=O)(=O)C(C)C)n2)c(OC(C)C)cc1C1CCNCC1 [ceritinib]
resistance by ALK secondary mutations [2]: mutations found in NSCLC have been associated with acquired resistance to ALK

SMILES: C[C@@H](Oc1cc(-c2cnn(C3CCNCC3)c2)cnc1N)c1c(Cl)ccc(F)c1Cl [crizotinib]
resistance by ALK secondary mutations [2]: mutations found in NSCLC have been associated with acquired resistance to ALK | sensitivity and response by ROS1 status ([2]; ROS-rearranged NSCLC patients, clinical data): improved response to the MET/ALK/ROS inhibitor, crizotinib.

SMILES: COc1cc2ncnc(Nc3ccc(F)c(Cl)c3)c2cc1NC(=O)/C=C/CN1CCCCC1 [dacomitinib]
sensitivity by EGFRvIII expression [2]: higher sensitivity to erlotinib and gefitinib, as well as to pan-Her inhibitors including

SMILES: COc1cccc2c1C(=O)c1c(O)c3c(c(O)c1C2=O)C[C@@](O)(C(C)=O)C[C@@H]3O[C@H]1C[C@H](N)[C@H](O)[C@H](C)O1 [daunorubicin]
sensitivity of AML tumor cells by NPM status [2]: research shows AML tumor cells with mutant NPM are more sensitive to

PGP Positive (IHC) Bene. Level ([2]; IHC positive: TLE3 F, TUBB3 F, PGP F): 1 | PGP Positive (IHC) Bene. Level ([2]; IHC positive: TLE3 F, TUBB3 F, PGP T): 2 | PGP Positive (IHC) Bene. Level ([2]; IHC positive: TLE3 F, TUBB3 No Data, PGP F): 1 | PGP Positive (IHC) Bene. Level ([2]; IHC positive: TLE3 F, TUBB3 No Data, PGP T): 3 | PGP Positive (IHC) Bene. Level ([2]; IHC positive: TLE3 F, TUBB3 T, PGP F): 1 | PGP Positive (IHC) Bene. Level ([2]; IHC positive: TLE3 F, TUBB3 T, PGP T): 3 | PGP Positive (IHC) Bene. Level ([2]; IHC positive: TLE3 No Data, TUBB3 F, PGP F): 1 | PGP Positive (IHC) Bene. Level ([2]; IHC positive: TLE3 No Data, TUBB3 F, PGP T): 2 | PGP Positive (IHC) Bene. Level ([2]; IHC positive: TLE3 No Data, TUBB3 No Data, PGP F): 1 | PGP Positive (IHC) Bene. Level ([2]; IHC positive: TLE3 No Data, TUBB3 No Data, PGP T): 3 | PGP Positive (IHC) Bene. Level ([2]; IHC positive: TLE3 No Data, TUBB3 T, PGP F): 1 | PGP Positive (IHC) Bene. Level ([2]; IHC positive: TLE3 No Data, TUBB3 T, PGP T): 3 | PGP Positive (IHC) Bene. Level ([2]; IHC positive: TLE3 T, TUBB3 F, PGP F): 1 | PGP Positive (IHC) Bene. Level ([2]; IHC positive: TLE3 T, TUBB3 F, PGP T): 2 | PGP Positive (IHC) Bene. Level ([2]; IHC positive: TLE3 T, TUBB3 No Data, PGP F): 1 | PGP Positive (IHC) Bene. Level ([2]; IHC positive: TLE3 T, TUBB3 No Data, PGP T): 2 | PGP Positive (IHC) Bene. Level ([2]; IHC positive: TLE3 T, TUBB3 T, PGP F): 1 | PGP Positive (IHC) Bene. Level ([2]; IHC positive: TLE3 T, TUBB3 T, PGP T): 2 | PGP Positive (IHC) Evid. Level ([2]; taxanes rule, Ref. No. 28): 3
SMILES: CC(=O)O[C@@]12CO[C@@H]1C[C@H](O)[C@@]1(C)C(=O)[C@H](O)C3=C(C)[C@@H](OC(=O)[C@H](O)[C@@H](NC(=O)OC(C)(C)C)c4ccccc4)C[C@@](O)([C@@H](OC(=O)c4ccccc4)[C@H]21)C3(C)C [docetaxel]

Bene. Level, PGP Positive (IHC) ([2]; PGP Positive (IHC)=F): 1 | Evid. Level, PGP Positive (IHC) ([2]; PGP Positive (IHC)=F): 2 | Bene. Level, PGP Positive (IHC) ([2]; PGP Positive (IHC)=T): 2 | Evid. Level, PGP Positive (IHC) ([2]; PGP Positive (IHC)=T): 2
SMILES: COc1cccc2c1C(=O)c1c(O)c3c(c(O)c1C2=O)C[C@@](O)(C(=O)CO)C[C@@H]3O[C@H]1C[C@H](N)[C@H](O)[C@H](C)O1 [doxorubicin, reference compound]

SMILES: CNC(=O)c1ccc(N2C(=S)N(c3ccc(C#N)c(C(F)(F)F)c3)C(=O)C2(C)C)cc1F [enzalutamide]
resistance by AR mutations ([2]; specific mutations in AR (e.g. F876L, AR-V7)): F876L, AR-V7) are associated with resistance to newer-generation, AR-targeted therapies

Bene. Level, PGP Positive (IHC) ([2]; PGP Positive (IHC)=F): 1 | Evid. Level, PGP Positive (IHC) ([2]; PGP Positive (IHC)=F): 2 | Bene. Level, PGP Positive (IHC) ([2]; PGP Positive (IHC)=T): 2 | Evid. Level, PGP Positive (IHC) ([2]; PGP Positive (IHC)=T): 2
SMILES: COc1cccc2c1C(=O)c1c(O)c3c(c(O)c1C2=O)C[C@@](O)(C(=O)CO)C[C@@H]3O[C@H]1C[C@H](N)[C@@H](O)[C@H](C)O1 [epirubicin]

SMILES: C#Cc1cccc(Nc2ncnc3cc(OCCOC)c(OCCOC)cc23)c1 [erlotinib]
sensitivity by EGFRvIII expression [2]: higher sensitivity to erlotinib and gefitinib, as well as to pan-Her inhibitors including | response by EGFR secondary mutation ([2]; T790M in exon 20): mutation, T790M in exon 20, confers reduced response. Non-small cell lung cancer cancer | sensitivity by EGFR gain-of-function mutations ([2]; in-frame deletions in exon 19 or point mutations in exon 21): point mutations in exon 21, confer sensitivity to first- and second-generation tyrosine

SMILES: CO[C@H]1C[C@@H]2CC[C@@H](C)[C@@](O)(O2)C(=O)C(=O)N2CCCC[C@H]2C(=O)O[C@H]([C@H](C)C[C@@H]2CC[C@@H](OCCO)[C@H](OC)C2)CC(=O)[C@H](C)/C=C(\C)[C@@H](O)[C@@H](OC)C(=O)[C@H](C)C[C@H](C)/C=C/C=C/C=C/1C [everolimus]
benefit by PIK3CA status ([2]; PIK3CA exon 20 mutations): associated with benefit from mTOR inhibitors (everolimus, temsirolimus). Evidence

Evid. Level, ER Positive (IHC) ([2]; ER Positive (IHC)=F): 1 | Bene. Level, ER Positive (IHC) ([2]; ER Positive (IHC)=T): 1 | Evid. Level, ER Positive (IHC) ([2]; ER Positive (IHC)=T): 1
SMILES: C=C1C[C@@H]2[C@H](CC[C@]3(C)C(=O)CC[C@@H]23)[C@@]2(C)C=CC(=O)C=C12 [exemestane]
